Experimental data as given in the NIST ThermoML archive (doi:10.1021/je700428f).
± gives the expanded uncertainty stated by the source.

Test: xn = mol fraction of the nth substance listed
Details: 101 kPa, Liquid; for viscosity: Capillary tube (Ostwald / Ubbelohde) method

COC(C)(C)C [2-methoxy-2-methylpropane] + CCCCCCCCCC
Details | mass density [kg/m3] | viscosity [mPa·s]
308.15 K, x1 = 0.5005 | 719.62 ± 0.57 | –
308.15 K, x1 = 0.6066 | 720.2 ± 0.57 | –
308.15 K, x1 = 0.6866 | 720.81 ± 0.56 | –
308.15 K, x1 = 0.7973 | 721.85 ± 0.56 | –
308.15 K, x1 = 0.8999 | 723.26 ± 0.56 | –
308.15 K, x1 = 1 | 724.82 ± 0.56 | –
313.15 K, x1 = 0.1016 | – | 0.654 ± 0.009
313.15 K, x1 = 0.1019 | 714.7 ± 0.58 | –
313.15 K, x1 = 0.2002 | – | 0.614 ± 0.009
313.15 K, x1 = 0.2041 | 714.74 ± 0.58 | –
313.15 K, x1 = 0.3003 | – | 0.572 ± 0.009
313.15 K, x1 = 0.3077 | 714.88 ± 0.58 | –
313.15 K, x1 = 0.3999 | 715.03 ± 0.58 | –
313.15 K, x1 = 0.4013 | – | 0.531 ± 0.009
313.15 K, x1 = 0.4992 | – | 0.491 ± 0.009
313.15 K, x1 = 0.5005 | 715.3 ± 0.57 | –
313.15 K, x1 = 0.6005 | – | 0.449 ± 0.009
313.15 K, x1 = 0.6066 | 715.7 ± 0.57 | –
313.15 K, x1 = 0.6866 | 716.18 ± 0.57 | –
313.15 K, x1 = 0.7 | – | 0.404 ± 0.009
313.15 K, x1 = 0.7973 | 717 ± 0.57 | –
313.15 K, x1 = 0.8005 | – | 0.362 ± 0.009
313.15 K, x1 = 0.8999 | 718.16 ± 0.57 | –
313.15 K, x1 = 1 | 719.42 ± 0.56 | –
318.15 K, x1 = 0.1016 | – | 0.614 ± 0.009
318.15 K, x1 = 0.1019 | 710.81 ± 0.59 | –
318.15 K, x1 = 0.2002 | – | 0.579 ± 0.009
318.15 K, x1 = 0.2041 | 710.74 ± 0.59 | –
318.15 K, x1 = 0.3003 | – | 0.54 ± 0.009
318.15 K, x1 = 0.3077 | 710.78 ± 0.59 | –
318.15 K, x1 = 0.3999 | 710.82 ± 0.58 | –
318.15 K, x1 = 0.4013 | – | 0.503 ± 0.009
318.15 K, x1 = 0.4992 | – | 0.462 ± 0.009
318.15 K, x1 = 0.5005 | 710.97 ± 0.58 | –
318.15 K, x1 = 0.6005 | – | 0.426 ± 0.009
318.15 K, x1 = 0.6066 | 711.2 ± 0.58 | –
318.15 K, x1 = 0.6866 | 711.53 ± 0.58 | –
318.15 K, x1 = 0.7 | – | 0.383 ± 0.009
318.15 K, x1 = 0.7973 | 712.1 ± 0.58 | –
318.15 K, x1 = 0.8999 | 713.01 ± 0.58 | –
318.15 K, x1 = 1 | 713.96 ± 0.57 | –
323.15 K, x1 = 0.1016 | – | 0.577 ± 0.009
323.15 K, x1 = 0.1019 | 706.89 ± 0.6 | –
323.15 K, x1 = 0.2002 | – | 0.546 ± 0.009
323.15 K, x1 = 0.2041 | 706.73 ± 0.59 | –
323.15 K, x1 = 0.3003 | – | 0.51 ± 0.009
323.15 K, x1 = 0.3077 | 706.65 ± 0.59 | –
323.15 K, x1 = 0.3999 | 706.59 ± 0.59 | –
323.15 K, x1 = 0.4013 | – | 0.476 ± 0.009
323.15 K, x1 = 0.4992 | – | 0.441 ± 0.009
323.15 K, x1 = 0.5005 | 706.6 ± 0.59 | –
323.15 K, x1 = 0.6005 | – | 0.406 ± 0.009
323.15 K, x1 = 0.6066 | 706.67 ± 0.59 | –
323.15 K, x1 = 0.6866 | 706.84 ± 0.59 | –
323.15 K, x1 = 0.7 | – | 0.365 ± 0.009
323.15 K, x1 = 0.7973 | 707.18 ± 0.58 | –
323.15 K, x1 = 0.8999 | 707.81 ± 0.58 | –
328.15 K, x1 = 0.1016 | – | 0.546 ± 0.009
328.15 K, x1 = 0.1019 | 702.96 ± 0.6 | –
328.15 K, x1 = 0.2002 | – | 0.517 ± 0.009
328.15 K, x1 = 0.2041 | 702.7 ± 0.6 | –
328.15 K, x1 = 0.3003 | – | 0.483 ± 0.009
328.15 K, x1 = 0.3077 | 702.51 ± 0.6 | –
328.15 K, x1 = 0.3999 | 702.33 ± 0.6 | –
328.15 K, x1 = 0.4013 | – | 0.451 ± 0.009
328.15 K, x1 = 0.4992 | – | 0.418 ± 0.009
328.15 K, x1 = 0.5005 | 702.22 ± 0.59 | –
328.15 K, x1 = 0.6005 | – | 0.386 ± 0.009
328.15 K, x1 = 0.6066 | 702.11 ± 0.59 | –
328.15 K, x1 = 0.6866 | 702.11 ± 0.59 | –
328.15 K, x1 = 0.7 | – | 0.35 ± 0.009
328.15 K, x1 = 0.7973 | 702.19 ± 0.59 | –
328.15 K, x1 = 0.8999 | 702.55 ± 0.59 | –
333.15 K, x1 = 0.1016 | – | 0.514 ± 0.009
333.15 K, x1 = 0.1019 | 699 ± 0.61 | –
333.15 K, x1 = 0.2002 | – | 0.489 ± 0.009
333.15 K, x1 = 0.2041 | 698.64 ± 0.61 | –
333.15 K, x1 = 0.3003 | – | 0.459 ± 0.009
333.15 K, x1 = 0.3077 | 698.34 ± 0.6 | –
333.15 K, x1 = 0.3999 | 698.05 ± 0.6 | –
333.15 K, x1 = 0.4013 | – | 0.432 ± 0.009
333.15 K, x1 = 0.4992 | – | 0.399 ± 0.009
333.15 K, x1 = 0.5005 | 697.78 ± 0.6 | –
333.15 K, x1 = 0.6005 | – | 0.371 ± 0.008
333.15 K, x1 = 0.6066 | 697.5 ± 0.6 | –
333.15 K, x1 = 0.6866 | 697.32 ± 0.6 | –
333.15 K, x1 = 0.7973 | 697.15 ± 0.6 | –
338.15 K, x1 = 0.1016 | – | 0.489 ± 0.009
338.15 K, x1 = 0.1019 | 695.02 ± 0.61 | –
338.15 K, x1 = 0.2002 | – | 0.466 ± 0.009
338.15 K, x1 = 0.2041 | 694.56 ± 0.61 | –
338.15 K, x1 = 0.3003 | – | 0.438 ± 0.009
338.15 K, x1 = 0.3077 | 694.14 ± 0.61 | –
338.15 K, x1 = 0.3999 | 693.73 ± 0.61 | –
338.15 K, x1 = 0.4013 | – | 0.413 ± 0.009
338.15 K, x1 = 0.4992 | – | 0.382 ± 0.009
338.15 K, x1 = 0.5005 | 693.31 ± 0.61 | –
338.15 K, x1 = 0.6005 | – | 0.359 ± 0.008
338.15 K, x1 = 0.6066 | 692.86 ± 0.61 | –
338.15 K, x1 = 0.6866 | 692.58 ± 0.61 | –
338.15 K, x1 = 0.7973 | 692.06 ± 0.61 | –
343.15 K, x1 = 0.1016 | – | 0.466 ± 0.009
343.15 K, x1 = 0.1019 | 691.02 ± 0.62 | –
343.15 K, x1 = 0.2002 | – | 0.445 ± 0.009
343.15 K, x1 = 0.2041 | 690.46 ± 0.62 | –
343.15 K, x1 = 0.3003 | – | 0.42 ± 0.009
343.15 K, x1 = 0.3077 | 689.92 ± 0.62 | –
343.15 K, x1 = 0.3999 | 689.38 ± 0.62 | –
343.15 K, x1 = 0.4013 | – | 0.398 ± 0.009
343.15 K, x1 = 0.4992 | – | 0.369 ± 0.009
343.15 K, x1 = 0.5005 | 688.8 ± 0.62 | –
343.15 K, x1 = 0.6066 | 688.18 ± 0.62 | –
343.15 K, x1 = 0.6866 | 687.71 ± 0.62 | –
343.15 K, x1 = 0.7973 | 686.92 ± 0.62 | –
348.15 K, x1 = 0.1016 | – | 0.443 ± 0.009
348.15 K, x1 = 0.1019 | 687.01 ± 0.63 | –
348.15 K, x1 = 0.2002 | – | 0.424 ± 0.009
348.15 K, x1 = 0.2041 | 686.34 ± 0.63 | –
348.15 K, x1 = 0.3003 | – | 0.402 ± 0.009
348.15 K, x1 = 0.3077 | 685.67 ± 0.62 | –
348.15 K, x1 = 0.3999 | 685.01 ± 0.62 | –
348.15 K, x1 = 0.4013 | – | 0.383 ± 0.008
348.15 K, x1 = 0.5005 | 684.26 ± 0.62 | –
348.15 K, x1 = 0.6066 | 683.43 ± 0.62 | –
353.15 K, x1 = 0.1016 | – | 0.422 ± 0.009
353.15 K, x1 = 0.1019 | 682.96 ± 0.63 | –
353.15 K, x1 = 0.2002 | – | 0.406 ± 0.009
353.15 K, x1 = 0.2041 | 682.18 ± 0.63 | –
353.15 K, x1 = 0.3003 | – | 0.386 ± 0.008
353.15 K, x1 = 0.3077 | 681.38 ± 0.63 | –
353.15 K, x1 = 0.3999 | 680.59 ± 0.63 | –
353.15 K, x1 = 0.4013 | – | 0.372 ± 0.008
353.15 K, x1 = 0.5005 | 679.69 ± 0.63 | –
353.15 K, x1 = 0.6066 | 678.65 ± 0.63 | –
358.15 K, x1 = 0.1016 | – | 0.407 ± 0.009
358.15 K, x1 = 0.1019 | 678.89 ± 0.64 | –
358.15 K, x1 = 0.2002 | – | 0.388 ± 0.008
358.15 K, x1 = 0.2041 | 678 ± 0.64 | –
358.15 K, x1 = 0.3003 | – | 0.372 ± 0.008
358.15 K, x1 = 0.3077 | 677.06 ± 0.64 | –
358.15 K, x1 = 0.3999 | 676.14 ± 0.64 | –
363.15 K, x1 = 0.1019 | 674.79 ± 0.65 | –
363.15 K, x1 = 0.2041 | 673.78 ± 0.65 | –
363.15 K, x1 = 0.3077 | 672.71 ± 0.65 | –
363.15 K, x1 = 0.3999 | 671.66 ± 0.65 | –
